pIC50: −log10 of the molar value.
Assays:
[1] = system: L1210; assay: Comet assay, DNA crosslinking; assay type: cell-based, murine; details: ratio >1 = more cross-linking in parental than in platinum-resistant line
Method: (§1) Preliminary studies have been carried out to investigate the mechanism underlying this increased sensitivity. These studies were carried out using the Comet assay (described in Appendix C), which measures damage to DNA. The results are shown in FIGS. 1 (cisplatinum), 2 (carboplatinum), 3 to 8 (compounds A-F) and 9 (phenylgoldtriphenylphospine, PAuP).
(§2) Table 3 illustrates the results of the following calculation using the DNA cross-linking results obtained in the Comet assays:
(§3) DNA damage was measured by the single cell gel electrophoresis (SCGE) assay or “Comet assay”, originally developed by Ostling and Johnson^8. This is a method for determining the extent of DNA damage and repair capacity within individual cells.^9-11 It has previously been shown that this technique can be used to investigate the mechanism of action of different DNA damaging agents.^12
(§4) Cells were trypsinised, suspended in 0.5 ml of ice cold fresh medium and transferred into plastic 24-well dishes prior to embedding in agarose. For the cross-linking studies treated and control samples were chilled on ice (to prevent any repair of DNA damage) and irradiated to a dose of 20 Gy in a Caesium-137 source (0.4 Gy/min). Control, (unirradiated, non-drug treated cells) were maintained on ice in the same manner as treated samples.
(§5) Glass microscope slides, frosted at one end, were pre-coated with 1% normal agarose in distilled water. These slides were allowed to air dry overnight prior to use. A 1% low melting point agarose (LMP) mixture in PBS was melted and held at 45° C. 1 ml of LMP was then added to 0.5 ml of cell suspension on ice and the resultant mixture was pipetted onto a pre-coated glass microscope slide and allowed to set for 1-2 minutes before being transferred to an ice tray. The slides were immersed in ice cold lysis solution (100 mM EDTA, 10 mM Tris-HCl, 1% Triton ×100, 1% DMSO, 2.5M NaCl) for 1 hr, and washed three times by immersion in fresh double distilled water for 15 minutes.
(§6) Slides were then placed onto a flat bed electrophoresis tank and covered (5-6 mm) with alkali unwinding solution (50 mM NaOH, 1 mM EDTA buffered to pH 12.5) and left under subdued lighting for 45 minutes to allow the DNA to unwind before being subjected to electrophoresis at 0.6V/cm for 25 minutes. Each slide was rinsed with 2×1 ml of 0.4M Tris-HCl, pH 8.0 and allowed to dry in air. The dried slides were then rehydrated for 20 minutes with double distilled water, 2×1 ml of propidium iodide solution (2.5 μg/ml) was added and staining was allowed to proceed for 15 minutes. Slides were then immersed in 1 litre of double distilled water for 1 hour to reduce excess background staining. The slides were cover slipped and then examined at 250× magnification under an epifluorescent microscope (Zeiss-Jenamed) using green light from a 50 watt mercury source with a 580 nm reflector and a 590 nm barrier filter set. Images were captured using an attached Sony HAD-1 interline CCD camera and Komet software analysis package (Kinetic Imaging). Twenty-five images from each of two duplicate slides were captured and analysed and the individual “comet moments” as defined by Olive et al^13, were calculated. The total fluorescence of the image represents the amount of DNA present and the length of the image, measured in pixels, represents the length of migration of the DNA. The head and tail areas of the image were identified and the intensity of each was determined. The tail moment is calculated by multiplying the fraction of DNA present in the tail by half the length of the tail.

[2] = system: L1210/M1140 cell line; assay: Growth inhibition assay (modified MTT); assay type: cell-based, murine; details: five-day MTT
Method: (§7) The sensitivities of the cell lines to cisplatinum, carboplatinum, and compounds A-F were determined using a growth inhibition assay which was a modified version of the MTT method (modified version of MTT method described in Appendix B).
(§8) The following is a brief description of the eleven different cell lines used in the growth inhibition assay: • The A2780 cell line (1 in FIGS. 1-9) is a human ovarian cell line which is sensitive to cisplatinum and carboplatinum. […] The cor123/cpr (7) cell line is a modified version of the cor123 cell line which has been modified to be resistant to cisplatinum and carboplatinum. • The ccu24 (8) cell line is an epithelial ovarian cancer cell line, developed at the Christie Hospital from a tumour biopsy, and the ccu24/cpr (9) cell line is a modified version of this cell line which is cisplatinum and carboplatinum resistant. • L1210 (10) is a murine leukemia cell line and L1210/M1140 (11) is its platinum drug resistant subline.
(§9) The cell toxicity studies were performed using a modification of the method MTT.^7 The principle of the assay is to assess the growth inhibitory effect of a drug at various doses over a five-day time course. This assay was performed in 96-well microtitre plates. Cells were seeded at densities of 400-1,000 cells per well, depending on the doubling time of the cell line. All cell dilutions were performed in growth medium containing 10% FCS (foetal calf serum).
(§10) Compounds under investigation were dissolved in DMSO (dimethylsulphoxide). Serial dilutions of compound were made into the cell suspension, ensuring that the proportion of DMSO remained below 0.5%. 200 μl of cells and drug mix was added to the 96-well plates in triplicate. The plates were incubated for five days at 5% CO2 and 37° C. After this time, the plates were removed from the incubator and 50 μl of a 3 mg/ml solution of MTT [3-(4,5-dimethyl-thiazol-2-yl)-2,5-diphenyl tetrazolium bromide] was added to each well and incubated in the same conditions for another 3 hours. The medium from each well was aspirated and the formazan crystals were solubilised in 200 μl of DMSO. The plates were read using a Multiskan platereader at 540 nm and 690 nm. Growth inhibition curves were constructed using mean and standard deviation of the triplicate absorbance values and from these curves the IC50 values were calculated.

[3] = system: L1210 cell line; assay: Growth inhibition assay (modified MTT); assay type: cell-based, murine; details: five-day MTT
Method: as §7, §8, §9, §10

[4] = system: parental and platinum-resistant cell lines; assay: Comet assay, DNA cross-linking, summary of FIGS. 1-9; assay type: cell-based; details: for DNA cross-linking in parental cell lines: parental (platinum-sensitive) A2780, L1210 and cor123 cell lines; for DNA cross-linking in parental cell lines / DNA cross-linking in platinum-resistant cell lines: FIGS. 1 and 2
Method: as §1, §3, §4, §5, §6

[5] = system: A2780-S cell line; assay: Growth inhibition assay (modified MTT); assay type: cell-based, human; details: five-day MTT
Method: as §7, §8, §9, §10

[6] = system: A2780cis cell line; assay: Growth inhibition assay (modified MTT); assay type: cell-based, human; details: A2780cis, five-day MTT
Method: as §7, §8, §9, §10

[7] = system: mcp1 cell line; assay: Growth inhibition assay (modified MTT); assay type: cell-based, human; details: five-day MTT
Method: as §7, §8, §9, §10

[8] = system: ccu24/cpr cell line; assay: Growth inhibition assay (modified MTT); assay type: cell-based, human; details: five-day MTT
Method: as §7, §8, §9, §10

[9] = system: cor123 cell line; assay: Growth inhibition assay (modified MTT); assay type: cell-based, human; details: five-day MTT
Method: as §7, §8, §9, §10

[10] = system: A2780carb cell line; assay: Growth inhibition assay (modified MTT); assay type: cell-based, human; details: A2780carb, five-day MTT
Method: as §7, §8, §9, §10

[11] = system: cor123/cpr cell line; assay: Growth inhibition assay (modified MTT); assay type: cell-based, human; details: five-day MTT
Method: as §7, §8, §9, §10

[12] = system: mcp8 cell line; assay: Growth inhibition assay (modified MTT); assay type: cell-based, human; details: five-day MTT
Method: as §7, §8, §9, §10

[13] = system: ccu24 cell line; assay: Growth inhibition assay (modified MTT); assay type: cell-based, human; details: five-day MTT
Method: as §7, §8, §9, §10

[14] = system: A2780/mcp8; assay: Comet assay, DNA crosslinking; assay type: cell-based, human; details: ratio >1 = more cross-linking in parental than in platinum-resistant line
Method: as §1, §2, §3, §4, §5, §6

[15] = system: cor123; assay: Comet assay, DNA crosslinking; assay type: cell-based, human; details: ratio >1 = more cross-linking in parental than in platinum-resistant line
Method: as §1, §2, §3, §4, §5, §6

[16] = system: A2780cis; assay: Comet assay, DNA crosslinking; assay type: cell-based, human; details: ratio >1 = more cross-linking in parental than in platinum-resistant line
Method: as §1, §2, §3, §4, §5, §6

[17] = system: ccu24; assay: Comet assay, DNA crosslinking; assay type: cell-based, human; details: ratio >1 = more cross-linking in parental than in platinum-resistant line
Method: as §1, §2, §3, §4, §5, §6

[18] = system: A2780mcp1; assay: Comet assay, DNA crosslinking; assay type: cell-based, human; details: ratio >1 = more cross-linking in parental than in platinum-resistant line
Method: as §1, §2, §3, §4, §5, §6

[19] = system: eleven cell lines; assay: Growth inhibition assay (modified MTT), summary over cell lines; assay type: cell-based, mouse and human; details: text reference to Table 1; cell line not stated
Method: as §7
as §8, with “subline. […]” for “subline.”
Compounds under investigation were dissolved in DMSO (dimethylsulphoxide). […] The plates were read using a Multiskan platereader at 540 nm and 690 nm. Growth inhibition curves were constructed using mean and standard deviation of the triplicate absorbance values and from these curves the IC50 values were calculated.

[20] = system: A2780carb; assay: Comet assay, DNA crosslinking; assay type: cell-based, human; details: ratio >1 = more cross-linking in parental than in platinum-resistant line
Method: as §1, §2, §3, §4, §5, §6

[21] = Table 1, first series of assays
[22] = Table 1, first series of assays, mcp1
[23] = Table 1, first series of assays, mcp8
[24] = Table 2, further series of assays
[25] = Table 2, further series of assays, A2780/mcp1
[26] = Table 2, further series of assays, A2780/mcp8

SMILES | DNA crosslinking (Comet) ratio [1] | pIC50 [2, 21] | pIC50 [3, 21] | pIC50 [5, 21] | pIC50 [6, 21] | pIC50 [7, 22] | pIC50 [8, 21] | pIC50 [9, 21] | pIC50 [10, 21] | pIC50 [11, 21] | pIC50 [12, 23] | pIC50 [13, 21] | DNA crosslinking (Comet) ratio [14] | DNA crosslinking (Comet) ratio [15] | DNA crosslinking (Comet) ratio [16] | DNA crosslinking (Comet) ratio [17] | DNA crosslinking (Comet) ratio [18] | DNA crosslinking (Comet) ratio [20] | pIC50 [2, 24] | pIC50 [3, 24] | other results
N.N.[Cl][Pt][Cl] [Cisplatin, cisplatin, reference compound] | 3.37 | 4.35 | 4.92 | 5.88 | 4.52 | 4.70 | 4.60 | 5.46 | 4.56 | 4.57 | 4.61 | 5.36 | 5.70 | 5.72 | 5.65 | 4.65 | 5.40 |  |  |  | DNA cross-linking in parental cell lines [4]: extensive DNA cross-linking; DNA cross-linking in platinum-resistant cell lines [4]: much less cross-linking; DNA crosslinking (Comet) ratio, all resistant cell lines ([4]; summary of Table 3): a ratio greater than unity
[Au+].[c-]1ccccc1.c1ccc([PH+](c2ccccc2)c2ccccc2)cc1 [PAuP, phenylgoldtriphenylphospine, reference compound] | 1.33 |  |  | < 5.00 | < 5.00 |  |  |  |  |  |  |  | 1.33 | 0.75 | 1.00 | 1.00 | 1.33 | 1.33 |  |  | ID50 (cytotoxicity) [19]: > 10000 mu; level of cross-linking ([4]; FIG. 9, compared to the di-gold compounds): low compared to the di-gold compounds
c1ccc([PH]([Au][CH2]c2ccc[c]([Au][PH](c3ccccc3)(c3ccccc3)c3ccccc3)c2)(c2ccccc2)c2ccccc2)cc1 [E] | 0.40 | 8.28 | 7.49 | 8.05 | 9.40 | 9.05 | 8.62 | 7.75 | 9.22 | 8.85 | 9.05 | 7.99 | 0.48 | 0.43 | 0.39 | 0.46 | 0.41 | 0.40 | 8.07 | 7.45 | pIC50 [5, 24]: 7.95; pIC50 [6, 24]: 9.15; pIC50 [7, 25]: 8.41; pIC50 [8, 24]: 8.27; pIC50 [9, 24]: 7.68; pIC50 [10, 24]: 9.05; pIC50 [11, 24]: 8.36; pIC50 [12, 26]: 8.33; pIC50 [13, 24]: 7.87
N.N.O=C([O-])C1(C(=O)[O-])CCC1.[Pt+2] [Carboplatin, carboplatin, reference compound] |  |  |  |  |  |  |  |  |  |  |  |  |  |  |  |  |  |  | 4.32 | 4.81 | DNA cross-linking in parental cell lines [4]: extensive DNA cross-linking; DNA cross-linking in platinum-resistant cell lines [4]: much less cross-linking; pIC50 [5, 24]: 5.80; pIC50 [6, 24]: 4.46; pIC50 [7, 25]: 4.61; pIC50 [8, 24]: 4.57; pIC50 [9, 24]: 5.27; pIC50 [10, 24]: 4.49; pIC50 [11, 24]: 4.53; pIC50 [12, 26]: 4.57; pIC50 [13, 24]: 5.24
c1ccc([PH]([Au][CH2]c2cc[c]([Au][PH](c3ccccc3)(c3ccccc3)c3ccccc3)cc2)(c2ccccc2)c2ccccc2)cc1 [D] | 0.63 | 7.76 | 7.31 | 7.49 | 8.14 | 8.08 | 7.90 | 7.65 | 7.99 | 7.80 | 8.17 | 7.44 | 0.50 | 0.62 | 0.54 | 0.47 | 0.48 | 0.63 | 7.69 | 7.30 | pIC50 [5, 24]: 7.44; pIC50 [6, 24]: 7.99; pIC50 [7, 25]: 7.71; pIC50 [8, 24]: 7.81; pIC50 [9, 24]: 7.60; pIC50 [10, 24]: 7.87; pIC50 [11, 24]: 7.71; pIC50 [12, 26]: 7.83; pIC50 [13, 24]: 7.40

From patent publication US7732485B2, “Treatment of cancer” (The University of Manchester, priority 2003, dated 2010)
